# Counter-ions that a name gives are not always drawn. Like-named read-outs stand apart in the source and are kept apart here.
# How the values were obtained:
# [1] = target: T1, HCV polymerase H544 1b 3X (Hepatitis C virus genotype 1b, UniProt P26663); test: Assay of enzyme (HCV polymerase) inhibitory activity, H544 1b 3X; assay type: biochemical, HCV BK strain
# T1 construct: a region encoding NS5B (J Virol 1991 March, 65(3), 1105-13, 544 amino acids after deletion of 47 amino acids on the C-terminal); 6 His (C); made in house; host or cells: Escherichia coli
# Text: The evaluation of the HCV polymerase inhibitory activity of the compound of the present invention is explained in the following. This polymerase is an enzyme coded for by the non-structural protein region called NS5B on the genome RNA of HCV (EMBO J., 15:12-22, 1996).
# Using, as a template, a cDNA clone corresponding to the full length genome RNA of HCV BK strain obtained from the blood of a patient with hepatitis C, a region encoding NS5B (J Virol 1991 March, 65(3), 1105-13, 544 amino acids after deletion of 47 amino acids on the C-terminal) was amplified by PCR. The objective gene was prepared by adding a 6 His tag {base pair encoding 6 continuous histidine (His)} to the 3′ end thereof and transformed to Escherichia coli. The Escherichia coli capable of producing the objective protein was cultured. The obtained cells were suspended in a buffer solution and crushed in a microfluidizer. The supernatant was obtained by centrifugation and applied to various column chromatographys {mono-S, Sephacryl S-200 (Pharmacia)}, inclusive of metal chelate chromatography, to give a standard enzyme product.
# Using a synthetic primer designed based on the sequence of HCV genomic 3′ untranslated region, a DNA fragment (148 bp) containing polyU and 3′X sequence was entirely synthesized and cloned into plasmid pBluescript SK II (+) (Stratagene). The cDNA encoding full length NS5B, which was prepared in i) above, was digested with restriction enzyme KpnI to give a cDNA fragment containing the nucleotide sequence of from the restriction enzyme cleavage site to the termination codon. This cDNA fragment was inserted into the upstream of 3′ untranslated region of the DNA in pBluescript SK II(+) and ligated. The about 450 bp inserted DNA sequence was used as a template in the preparation of substrate RNA. This plasmid was cleaved immediately after the 3′X sequence, linearized and purified by phenol-chloroform treatment and ethanol precipitation to give DNA.
# RNA was synthesized (37° C., 3 hr) by run-off method using this purified DNA as a template, a promoter of pBluescript SK II(+), MEGAscript RNA synthesis kit (Ambion) and T7 RNA polymerase. DNase I was added and the mixture was incubated for 1 hr. The template DNA was removed by decomposition to give a crude RNA product. This crude product was treated with phenol-chloroform and purified by ethanol precipitation to give the objective substrate RNA.
# This RNA was applied to formaldehyde denaturation agarose gel electrophoresis to confirm the quality thereof and preserved at −80° C.
# A test substance (compound of the present invention) and a reaction mixture (30 μl) having the following composition were reacted at 25° C. for 90 min. 10% Trichloroacetic acid at 4° C. and 1% sodium pyrophosphate solution (150 μl) were added to this reaction mixture to stop the reaction. The reaction mixture was left standing in ice for 15 min to insolubilize RNA. This RNA was trapped on a glass filter (Whatman GF/C and the like) upon filtration by suction. This filter was washed with a solution containing 1% trichloroacetic acid and 0.1% sodium pyrophosphate, washed with 90% ethanol and dried. A liquid scintillation cocktail (Packard) was added and the radioactivity of RNA synthesized by the enzyme reaction was measured on a liquid scintillation counter.
# The HCV polymerase inhibitory activity (IC50) of the compound of the present invention was calculated from the values of radioactivity of the enzyme reaction with and without the test substance.
# The results are shown in Table 18, wherein each symbol means that IC50 falls within the following range.
# Reaction mixture: HCV polymerase (0.5 μg/ml) obtained in i), substrate RNA (5 μg/ml) obtained in ii), ATP (50 μM), GTP (50 μM), CTP (50 μM), UTP (2 μM), [5,6-^3H] UTP (46 Ci/mmol (Amersham), 1 μCi) 20 mM Tris-HCl (pH 7.5), EDTA (1 mM), MgCl2 (5 mM), NaCl (50 mM), DTT (1 mM), BSA (0.01%)
# [2] = target: T2, HCV polymerase H544 1a 3X (UniProt P27958); test: Assay of enzyme (HCV polymerase) inhibitory activity, H544 1a 3X; assay type: biochemical
# T2 construct: fused on or other part: 6 His tag at the C-terminus, for the BK (1b) enzyme
# [3] = 25° C., 90 min, [5,6-3H]UTP incorporation, read-out: H544 1a 3X IC50
# [4] = read-out: H544 1a 3X IC50, 25° C., 90 min, [5,6-3H]UTP incorporation
# T1 sequence (P26663 2420-2963): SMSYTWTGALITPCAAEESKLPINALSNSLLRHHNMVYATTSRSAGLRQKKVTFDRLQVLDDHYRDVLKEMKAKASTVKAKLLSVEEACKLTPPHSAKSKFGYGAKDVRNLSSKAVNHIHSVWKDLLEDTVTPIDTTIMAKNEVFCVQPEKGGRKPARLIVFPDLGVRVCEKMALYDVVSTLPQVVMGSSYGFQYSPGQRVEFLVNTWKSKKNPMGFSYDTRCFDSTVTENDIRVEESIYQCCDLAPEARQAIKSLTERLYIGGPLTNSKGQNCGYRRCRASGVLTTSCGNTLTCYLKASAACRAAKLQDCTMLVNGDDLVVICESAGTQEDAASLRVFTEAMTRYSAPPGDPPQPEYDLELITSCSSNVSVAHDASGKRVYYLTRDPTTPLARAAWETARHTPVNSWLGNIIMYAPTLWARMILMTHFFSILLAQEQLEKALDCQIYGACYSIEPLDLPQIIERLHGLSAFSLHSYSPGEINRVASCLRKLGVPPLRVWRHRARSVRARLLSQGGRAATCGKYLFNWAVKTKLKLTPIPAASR
SMILES,IC50 [1] [nM],"IC50 [2, 3] [nM]","IC50 [2, 4] [nM]"
"O=C(O)c1cc2c(s1)c(C1CCCCC1)c(-c1ccc(OCc3ccccc3)cc1)n2CC(=O)N1CCC(N2CCCCC2)CC1 [Example 54, 5-(4-benzyloxyphenyl)-4-[2-(1,4′-bipiperidinyl-1′-yl)-2-oxoethyl]-6-cyclohexyl-4H-thieno[3,2-b]pyrrole-2-carboxylic acid hydrochloride]",< 100,< 100,
"O=C(O)c1cc2nc(-c3ccc(OCc4cc(N5CCCC5=O)ccc4N4CCOCC4)cc3)n(C3CCCCC3)c2s1 [Example 5, 3-cyclohexyl-2-{4-[2-morpholino-5-(2-oxopyrrolidin-1-yl)benzyloxy]phenyl}-3H-thieno[2,3-d]imidazole-5-carboxylic acid]",100 to 1000,100 to 1000,
"Cn1c(-c2ccc(OCc3ccccc3)cc2)c(C2CCCCC2)c2sc(C(=O)O)cc21 [Example 12, 5-(4-benzyloxyphenyl)-6-cyclohexyl-4-methyl-4H-thieno[3,2-b]pyrrole-2-carboxylic acid]",100 to 1000,100 to 1000,
"Cn1c(-c2ccc(OCc3cc(N4CCCC4=O)ccc3N3CCN(S(C)(=O)=O)CC3)cc2)c(C2CCCCC2)c2sc(C(=O)O)cc21 [Example 18, 6-cyclohexyl-5-{4-[2-(4-methanesulfonylpiperazin-1-yl)-5-(2-oxopyrrolidin-1-yl)benzyloxy]phenyl}-4-methyl-4H-thieno[3,2-b]pyrrole-2-carboxylic acid hydrochloride]",< 100,< 100,
"CN(C(=O)CN1CCOCC1)c1ccc(N2CCOCC2)c(COc2ccc(-c3c(C4CCCCC4)c4sc(C(=O)O)cc4n3C)cc2)c1 [Example 57, 6-cyclohexyl-4-methyl-5-(4-{5-[N-methyl-N-(2-morpholinoacetyl)amino]-2-morpholinobenzyloxy}phenyl)-4H-thieno[3,2-b]pyrrole-2-carboxylic acid dihydrochloride]",< 100,,< 100
"COc1ccc(-c2c(C3CCCCC3)c3sc(C(=O)O)cc3n2CC(=O)NCc2ccccc2)cc1 [Example 32, 4-(benzylcarbamoylmethyl)-6-cyclohexyl-5-(4-methoxyphenyl)-4H-thieno[3,2-b]pyrrole-2-carboxylic acid]",< 100,< 100,
"CN(CCN1CCCCC1)CCn1c(-c2ccc(OCc3ccccc3)cc2)c(C2CCCCC2)c2sc(C(=O)O)cc21 [Example 59, 5-(4-benzyloxyphenyl)-6-cyclohexyl-4-{2-[N-methyl-N-(2-piperidinoethyl)amino]ethyl}-4H-thieno[3,2-b]pyrrole-2-carboxylic acid dihydrochloride]",< 100,,100 to 1000
"O=C(O)c1cc2c(s1)c(C1CCCCC1)c(-c1ccc(OCc3ccccc3)cc1)n2CC(=O)N1CCN(C2CCCCC2)CC1 [Example 52, 5-(4-benzyloxyphenyl)-6-cyclohexyl-4-[2-(4-cyclohexylpiperazin-1-yl)-2-oxoethyl]-4H-thieno[3,2-b]pyrrole-2-carboxylic acid hydrochloride]",< 100,< 100,
"CN(C)CC(=O)Nc1ccc(N2CCOCC2)c(COc2ccc(-c3c(C4CCCCC4)c4sc(C(=O)O)cc4n3C)cc2)c1 [Example 40, 6-cyclohexyl-5-{4-[5-(2-dimethylaminoacetylamino)-2-morpholinobenzyloxy]phenyl}-4-methyl-4H-thieno[3,2-b]pyrrole-2-carboxylic acid dihydrochloride]",< 100,,< 100
"COCCn1c(-c2ccc(OCc3ccccc3)cc2)c(C2CCCCC2)c2sc(C(=O)O)cc21 [Example 49, 5-(4-benzyloxyphenyl)-6-cyclohexyl-4-(2-methoxyethyl)-4H-thieno[3,2-b]pyrrole-2-carboxylic acid]",100 to 1000,100 to 1000,
"Cn1c(-c2ccc(OCc3cc(N)ccc3N3CCN(S(C)(=O)=O)CC3)cc2)c(C2CCCCC2)c2sc(C(=O)O)cc21 [Example 19, 5-(4-[5-amino-2-(4-methanesulfonylpiperazin-1-yl)benzyloxy]phenyl)-6-cyclohexyl-4-methyl-4H-thieno[3,2-b]pyrrole-2-carboxylic acid hydrochloride]",< 100,< 100,
"O=C(O)c1cc2c(s1)c(C1CCCCC1)c(-c1ccc(OCc3ccccc3)cc1)n2CCN1CCN(C2CCCCC2)CC1 [Example 53, 5-(4-benzyloxyphenyl)-6-cyclohexyl-4-[2-(4-cyclohexylpiperazin-1-yl)ethyl]-4H-thieno[3,2-b]pyrrole-2-carboxylic acid dihydrochloride]",100 to 1000,,100 to 1000
"Cn1c(-c2ccc(OCc3cc(S(C)(=O)=O)ccc3N3CCOCC3)cc2)c(C2CCCCC2)c2sc(C(=O)O)cc21 [Example 23, 6-cyclohexyl-5-[4-(5-methanesulfonyl-2-morpholinobenzyloxy)phenyl]-4-methyl-4H-thieno[3,2-b]pyrrole-2-carboxylic acid hydrochloride]",< 100,< 100,
"Cn1c(-c2ccc(OCc3ccccc3N3CCOCC3)cc2)c(C2CCCCC2)c2sc(C(=O)O)cc21 [Example 31, 6-cyclohexyl-4-methyl-5-[4-(2-morpholinobenzyloxy)phenyl]-4H-thieno[3,2-b]pyrrole-2-carboxylic acid hydrochloride]",< 100,< 100,
"CN(C)CCn1c(-c2ccc(OCc3ccccc3)cc2)c(C2CCCCC2)c2sc(C(=O)O)cc21 [Example 46, 5-(4-benzyloxyphenyl)-6-cyclohexyl-4-(2-dimethylaminoethyl)-4H-thieno[3,2-b]pyrrole-2-carboxylic acid]",100 to 1000,100 to 1000,
"CN(C)C(=O)Cn1c(-c2ccc(OC3CCN(C(=O)OC(C)(C)C)CC3)cc2)c(C2CCCCC2)c2sc(C(=O)O)cc21 [Example 39, 5-[4-(1-tert-butoxycarbonylpiperidin-4-yloxy)phenyl]-6-cyclohexyl-4-dimethylcarbamoylmethyl-4H-thieno[3,2-b]pyrrole-2-carboxylic acid]",< 100,100 to 1000,
"CN(C)CC(=O)N(C)c1ccc(N2CCOCC2)c(COc2ccc(-c3c(C4CCCCC4)c4sc(C(=O)O)cc4n3C)cc2)c1 [Example 43, 6-cyclohexyl-5-(4-{5-[N-(2-dimethylaminoacetyl)-N-methylamino]-2-morpholinobenzyloxy}phenyl)-4-methyl-4H-thieno[3,2-b]pyrrole-2-carboxylic acid dihydrochloride]",< 100,,< 100
"COc1ccc(-c2c(C3CCCCC3)c3sc(C(=O)O)cc3n2CC(=O)N2CCOCC2)cc1 [Example 25, 6-cyclohexyl-5-(4-methoxyphenyl)-4-morpholinocarbonylmethyl-4H-thieno[3,2-b]pyrrole-2-carboxylic acid]",< 100,100 to 1000,
"O=C(O)c1cc2c(s1)c(C1CCCCC1)c(-c1ccc(OCc3ccccc3)cc1)n2Cc1ccccc1 [Example 45, 4-benzyl-5-(4-benzyloxyphenyl)-6-cyclohexyl-4H-thieno[3,2-b]pyrrole-2-carboxylic acid]",100 to 1000,100 to 1000,
"Cn1c(-c2ccccc2OCc2ccccc2)c(C2CCCCC2)c2sc(C(=O)O)cc21 [Example 35, 5-(2-benzyloxyphenyl)-6-cyclohexyl-4-methyl-4H-thieno[3,2-b]pyrrole-2-carboxylic acid]",100 to 1000,100 to 1000,

# — patent US20090036444A1, “5-5-Membered fused heterocyclic compound and use thereof as HCV polymerase inhibitor” (priority 2003, published 2009)
